Each structure is given as a SMILES string.

The assay concerns the target T1, rat B1R (bradykinin receptor 1) (Rattus norvegicus, UniProt P97583).
T1 construct: expressed in transfected cells; host or cells: CHO K1 cells
T1 sequence (P97583 1-337): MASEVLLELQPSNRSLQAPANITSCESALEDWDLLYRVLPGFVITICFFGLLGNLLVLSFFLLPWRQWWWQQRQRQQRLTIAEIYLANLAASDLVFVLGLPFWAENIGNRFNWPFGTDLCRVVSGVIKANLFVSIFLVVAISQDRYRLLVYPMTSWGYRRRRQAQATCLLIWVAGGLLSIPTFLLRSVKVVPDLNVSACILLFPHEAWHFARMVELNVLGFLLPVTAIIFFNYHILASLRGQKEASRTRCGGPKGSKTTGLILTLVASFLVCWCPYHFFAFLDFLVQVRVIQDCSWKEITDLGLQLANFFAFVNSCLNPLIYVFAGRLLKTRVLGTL
As to the kind of experiment: FLIPR Ca2+ assay (Fluo-4) on CHO K1 cells stably transfected with the B1R gene of the rat (rB1R cells): % inhibition at 10 μM / IC50, agonist Des-Arg9-bradykinin. Type of assay: cell-based. Particulars: CHO-K1, rat B1R. Here is the method: The agonistic or antagonistic action of substances can be quantified on the bradykinin receptor 1 (B1R) of the human and rat species with ectopically expressing cell lines (CHO K1 cells) and with the aid of a Ca^2+-sensitive dyestuff (Fluo-4) in a fluorescent imaging plate reader (FLIPR). The figure in % activation is based on the Ca^2+ signal after addition of Lys-Des-Arg^9-bradykinin (0.5 nM) or Des-Arg^9-bradykinin (100 nM). Antagonists lead to a suppression of the Ca^2+ inflow after addition of the agonist. % inhibition compared with the maximum achievable inhibition is stated.
The agonistic or antagonistic action of substances can be determined on the bradykinin receptor 1 (B1R) of the human and rat species with the following assay. In accordance with this assay, the Ca^2+ inflow through the channel is quantified with the aid of a Ca^2+-sensitive dyestuff (type Fluo-4, Molecular Probes Europe BV, Leiden, Holland) in a fluorescent imaging plate reader (FLIPR, Molecular Devices, Sunnyvale, USA).
Chinese hamster ovary cells (CHO K1 cells) transfected stably with the human B1R gene (hB1R cells) or the B1R gene of the rat (rB1R cells) are used. For functional studies, these cells are plated out on black 96-well plates with a clear base (BD Biosciences, Heidelberg, Germany or Greiner, Frickenhausen, Germany) in a density of 20,000-35,000 cells/well. The cells are left overnight at 37° C. and 5% CO2 in culture medium (hB1R cells: Nutrient Mixture Ham's F12, Gibco Invitrogen GmbH, Karlsruhe, Germany or DMEM, Sigma-Aldrich, Taufkirchen, Germany; rB1R cells: D-MEM/F12, Gibco Invitrogen GmbH, Karlsruhe, Germany) with 10 vol. % FBS (foetal bovine serum, Gibco Invitrogen GmbH, Karlsruhe, Germany or PAN Biotech GmbH, Aidenbach, Germany). On the following day, the cells are loaded for 60 min at 37° C. with 2.13 μM Fluo-4 (Molecular Probes Europe BV, Leiden Holland) in HBSS buffer (Hank's buffered saline solution, Gibco Invitrogen GmbH, Karlsruhe, Germany) with 2.5 mM probenecid (Sigma-Aldrich, Taufkirchen, Germany) and 10 mM HEPES (Sigma-Aldrich, Taufkirchen, Germany). The plates are then washed 2× with HBSS buffer, and HBSS buffer which additionally contains 0.1% BSA (bovine serum albumin; Sigma-Aldrich, Taufkirchen, Germany), 5.6 mM glucose and 0.05% gelatine (Merck KGaA, Darmstadt, Germany) is added. After a further incubation of 20 minutes at room temperature, the plates are inserted into the FLIPR for the Ca^2+ measurement. Alternatively, the plates are washed with buffer A (15 mM HEPES, 80 mM NaCl, 5 mM KCl, 1.2 mM CaCl2, 0.7 mM MgSO4, 2 g/l glucose, 2.5 mM probenecid), buffer A is added and the plates are loaded with 2.5 μM Fluo-4 and 0.025% Pluronic F127 (Sigma-Aldrich, Taufkirchen, Germany). Thereafter, the cells are washed 2× with buffer A and incubated for 30 minutes at room temperature with buffer A, which additionally contains 0.05% BSA and 0.05% gelatine, and thereafter inserted into the FLIPR for the Ca^2+ measurement. The Ca^2+-dependent fluorescence is measured here before and after addition of substances (λex=488 nm, λem=540 nm). Quantification is by measurement of the highest fluorescence intensity (FC, fluorescence counts) over time.
The FLIPR protocol consists of 2 additions of substance. Test substances (10 μM) are first pipetted on to the cells and the Ca^2+ inflow is compared with the control (hB1R: Lys-Des-Arg^9-bradykinin>=50 nM; rB1R: Des-Arg^9-bradykinin 10 μM). This gives the result in % activation based on the Ca^2+ signal after addition of Lys-Des-Arg^9-bradykinin (>=50 nM) or Des-Arg^9-bradykinin (10 μM). After incubation for 10-20 minutes, Lys-Des-Arg^9-bradykinin (hB1R) or Des-Arg^9-bradykinin (rB1R) in the concentration of the EC80 is applied and the inflow of Ca^2+ is likewise determined. Antagonists lead to a suppression of the Ca^2+ inflow. % inhibition compared with the maximum achievable inhibition is calculated.
For determination of the IC50 value, the substances are added in various concentrations. […]

As for `COc1ccc(CN2CCC3(CC2)CCN(C(=O)c2ccc4c(c2)C(NC(=O)c2c(F)cccc2Cl)CC4)CC3)cc1F` (centres unmarked) [IND_CC-792, 2-Chloro-6-fluoro-N-[6-[9-[(3-fluoro-4-methoxy-phenyl)-methyl]-3,9-diazaspiro[5.5]undecane-3-carbonyl]-2,3-dihydro-1H-inden-1-yl]-benzamide], the inhibition at 10 µM is 89%.

`O=C(NC1CCc2ccc(C(=O)N3CCC4(CCN(Cc5ccc6ncccc6c5)CC4)C3)cc21)c1c(F)cccc1Cl` (centres unmarked) [IND_CC-774, 2-Chloro-6-fluoro-N-[6-[8-(quinolin-6-yl-methyl)-2,8-diazaspiro[4.5]decane-2-carbonyl]-2,3-dihydro-1H-inden-1-yl]-benzamide]: the inhibition at 10 µM is 81%.

Consider `Cc1ccc(C(=O)NC2CCc3ccc(C(=O)N4CCC5(CCN(c6ccncc6)CC5)C4)cc32)c(F)c1` (centres unmarked) [IND_CC-319, 2-Fluoro-4-methyl-N-[6-(8-pyridin-4-yl-2,8-diazaspiro[4.5]decane-2-carbonyl)-2,3-dihydro-1H-inden-1-yl]-benzamide], for which the inhibition at 10 µM was 102%.

With `O=C(NC1CCc2ccc(C(=O)N3CCC4(CC3)CCN(C(=O)c3cnccn3)CC4)cc21)c1ccccc1Cl` (centres unmarked) [IND_CC-594, 2-Chloro-N-[6-[9-(pyrazine-2-carbonyl)-3,9-diazaspiro[5.5]undecane-3-carbonyl]-2,3-dihydro-1H-inden-1-yl]-benzamide], the inhibition at 10 µM was found to be 91%.

Turning to `CC(C)(C)CC(=O)N1CCC2(CC1)CCN(C(=O)c1ccc3c(c1)C(N(C(=O)c1ccccc1Cl)C1CC1)CC3)C2` (centres unmarked) [IND_CC-604, 2-Chloro-N-cyclopropyl-N-[6-[8-(3,3-dimethyl-butanoyl)-2,8-diazaspiro[4.5]decane-2-carbonyl]-2,3-dihydro-1H-inden-1-yl]-benzamide], the inhibition at 10 µM was 94%.

`O=C(NC1CCc2ccc(C(=O)N3CCC4(CCN(Cc5c(F)cccc5F)CC4)C3)cc21)c1cc(C(F)(F)F)ccc1Cl` (centres unmarked) [IND_CC-632, 2-Chloro-N-[6-[8-[(2,6-difluoro-phenyl)-methyl]-2,8-diazaspiro[4.5]decane-2-carbonyl]-2,3-dihydro-1H-inden-1-yl]-5-(trifluoromethyl)-benzamide]: the inhibition at 10 µM was 64%.

Regarding `O=C(NC1CCc2ccc(C(=O)N3CCC4(CCN(C(=O)NCc5ccccc5)CC4)CC3)cc21)c1ccccc1Cl` (centres unmarked) [IND_CC-706, N-Benzyl-3-[3-[(2-chloro-benzoyl)amino]-2,3-dihydro-1H-indene-5-carbonyl]-3,9-diazaspiro[5.5]undecane-9-carboxylic acid amide], the inhibition at 10 µM stood at 103%.

With `N#Cc1ccc(CN2CCC3(CC2)CCN(C(=O)c2ccc4c(c2)C(NC(=O)c2cc(C(F)(F)F)ccc2Cl)CC4)CC3)cc1` (centres unmarked) [IND_CC-666, 2-Chloro-N-[6-[9-[(4-cyano-phenyl)-methyl]-3,9-diazaspiro[5.5]undecane-3-carbonyl]-2,3-dihydro-1H-inden-1-yl]-5-(trifluoromethyl)-benzamide], the inhibition at 10 µM was 78%.

As for `O=C(c1ccc2c(c1)C(NS(=O)(=O)Cc1ccccc1F)CC2)N1CCC2(CC1)CCN(c1ccncc1)C2` (centres unmarked) [IND_CC-350, 1-(2-Fluorophenyl)-N-[6-(2-pyridin-4-yl-2,8-diazaspiro[4.5]decane-8-carbonyl)-2,3-dihydro-1H-inden-1-yl]-methanesulfonic acid amide], the inhibition at 10 µM is 106%.

In the case of `CCC(C)C(=O)NC1CCc2ccc(C(=O)N3CCC4(CCN(c5ccncc5)CC4)C3)cc21` (centres unmarked) [IND_CC-417, 2-Methyl-N-[6-(8-pyridin-4-yl-2,8-diazaspiro[4.5]decane-2-carbonyl)-2,3-dihydro-1H-inden-1-yl]-butyramide], the inhibition at 10 µM came to 102%.

For `Cc1cccc(Cl)c1C(=O)NC1CCc2ccc(C(=O)N3CCC4(CCN(Cc5ccc(C#N)cc5)CC4)C3)cc21` (centres unmarked) [IND_CC-731, 2-Chloro-N-[6-[8-[(4-cyano-phenyl)-methyl]-2,8-diazaspiro[4.5]decane-2-carbonyl]-2,3-dihydro-1H-inden-1-yl]-6-methyl-benzamide], the inhibition at 10 µM was found to be 83%.

A word on the inhibition: it is the change of the read-out against control, counted positive when it falls.

(Values after patent US8455475B2 (Gruenenthal GmbH, priority 2009, dated 2013).)
